Marks after values point to notes of the source that are not given here.
Assay: Determination of bio-accumulation: urinary clearance pharmacokinetic study in rats
Type: in vivo, male Sprague Dawley rats
Conditions: 73 micro Moles per kg body weight, oral gavage, clinical observation and gross necropsy 96 hours post-dose

In the case of N.O=C(O)C(F)(F)C(F)(F)OC(F)(F)C(F)(F)C(F)(F)C(F)(F)F [Compound 9, C4F9—O—CF2—CF2—COONH4], the “Compound-related Effects” value is reported as “Hepatomegaly”.
In the case of N.O=C(O)C(F)(F)C(F)(F)C(F)(F)C(F)(F)C(F)(F)OC(F)C(F)(F)F (centres unmarked) [Compound 14, CF3—CFH—O—(CF2)5—COONH4], the “Compound-related Effects” value is reported as “Hepatomegaly”.
With N.O=C(O)C(F)(F)C(F)(F)C(F)(F)C(F)(F)C(F)(F)C(F)(F)C(F)(F)F [Compound C-1, C7F15COONH4, reference compound] the “Compound-related Effects” value was “Hepatomegaly”.
With N.O=C(O)C(F)(F)OC(F)(F)C(F)(OC(F)(F)C(F)(F)C(F)(F)F)C(F)(F)F (centres unmarked) [Compound C-3, C3F7—O—CF(CF3)—CF2—O—CF2—COONH4, reference compound] the “Compound-related Effects” value was “Hepatomegaly”.

Same assay, conditions: 73 micro Moles per kg body weight, oral gavage, elimination via urine, exponential least squares curve fitting of concentration in urine

Point of comparison: N.O=C(O)C(F)(F)C(F)(F)OC(F)(F)C(F)(F)F [Compound 7, C2F5—O—CF2—CF2—COONH4], “T½” value 10 h. Against it:
- N.O=C(O)C(F)(F)OC(F)(F)OC(F)(F)F [Compound 2, CF3—OCF2—O—CF2—COONH4] — within 1.5-fold, 12 h
- N.O=C(O)C(F)(F)OC(F)(F)OC(F)(F)OC(F)(F)F [Compound 3, CF3—OCF2—OCF2—OCF2—COONH4] — within 1.5-fold, 12 h
- N.O=C(O)C(F)(F)OC(F)(F)C(F)(F)C(F)(F)F [Compound 5, C3F7—O—CF2—COONH4] — within 1.5-fold, 11 h
- N.O=C(O)C(F)(F)C(F)(F)OC(F)(F)F [Compound 6, CF3—O—CF2—CF2—COONH4] — within 1.5-fold, 11 h
- N.O=C(O)C(F)(F)C(F)(F)OC(F)(F)C(F)(F)C(F)(F)F [Compound 8, C3F7—O—CF2—CF2—COONH4] — within 1.5-fold, 12 h
- N.O=C(O)C(F)(F)C(F)(F)OC(F)(F)C(F)(F)C(F)(F)C(F)(F)F [Compound 9, C4F9—O—CF2—CF2—COONH4] — 3.1-fold higher, 31 h
- N.O=C(O)C(F)(F)OC(F)(F)C(F)(F)OC(F)(F)C(F)(F)F [Compound 10, C2F5—O—CF2—CF2—O—CF2—COONH4] — the same, 10 h
- N.O=C(O)C(F)(F)C(F)OC(F)(F)C(F)(F)C(F)(F)OC(F)(F)F (centres unmarked) [Compound 11, CF3—O—CF2—CF2—CF2—O—CHF—CF2—COONH4] — within 1.5-fold, 12 h
- N.O=C(O)C(F)OC(F)(F)C(F)(F)C(F)(F)OC(F)(F)F (centres unmarked) [Compound 12, CF3—O—CF2—CF2—CF2—O—CHF—COONH4] — within 1.5-fold, 11 h
- N.O=C(O)C(F)(F)C(F)OC(F)(F)C(F)(F)C(F)(F)F (centres unmarked) [Compound 13, C3F7—O—CFH—CF2COONH4] — within 1.5-fold, 11 h
- N.O=C(O)C(F)(F)C(F)(F)C(F)(F)C(F)(F)C(F)(F)OC(F)C(F)(F)F (centres unmarked) [Compound 14, CF3—CFH—O—(CF2)5—COONH4] — 2.4-fold higher, 24 h
- N.O=C(O)C(F)(F)C(F)(F)C(F)(F)OC(F)C(F)(F)F (centres unmarked) [Compound 15, CF3—CFH—O—(CF2)3—COONH4] — within 1.5-fold, 8 h
- N.O=C(O)C(F)(F)OC(F)(F)C(F)(OC(F)(F)C(F)(F)C(F)(F)F)C(F)(F)F (centres unmarked) [Compound C-3, C3F7—O—CF(CF3)—CF2—O—CF2—COONH4, reference compound] — 9.5-fold higher, 95 h

In the case of N.O=C(O)C(F)(F)C(F)(F)C(F)(F)C(F)(F)C(F)(F)C(F)(F)C(F)(F)F [Compound C-1, C7F15COONH4, reference compound], the “T½” value is reported as ~550 h.

Same assay, conditions: 73 micro Moles per kg body weight, oral gavage, recovered in urine up to 96 h

Point of comparison: N.O=C(O)C(F)(F)OC(F)(F)C(F)(F)C(F)(F)OC(F)(F)F [Compound 4, CF3—(OCF2)3—OCF2—COONH4], “% Recovery (96 h)” value 50%. Against it:
- N.O=C(O)C(F)(F)OC(F)(F)C(F)(F)C(F)(F)OC(F)(F)F [Compound 1, CF3—O—(CF2)3—O—CF2—COONH4] — higher, 73%
- N.O=C(O)C(F)(F)OC(F)(F)OC(F)(F)F [Compound 2, CF3—OCF2—O—CF2—COONH4] — higher, 96%
- N.O=C(O)C(F)(F)OC(F)(F)OC(F)(F)OC(F)(F)F [Compound 3, CF3—OCF2—OCF2—OCF2—COONH4] — higher, 100%
- N.O=C(O)C(F)(F)OC(F)(F)C(F)(F)C(F)(F)F [Compound 5, C3F7—O—CF2—COONH4] — higher, 97%
- N.O=C(O)C(F)(F)C(F)(F)OC(F)(F)F [Compound 6, CF3—O—CF2—CF2—COONH4] — higher, 100%
- N.O=C(O)C(F)(F)C(F)(F)OC(F)(F)C(F)(F)F [Compound 7, C2F5—O—CF2—CF2—COONH4] — higher, 100%
- N.O=C(O)C(F)(F)C(F)(F)OC(F)(F)C(F)(F)C(F)(F)F [Compound 8, C3F7—O—CF2—CF2—COONH4] — higher, 82%
- N.O=C(O)C(F)(F)C(F)(F)OC(F)(F)C(F)(F)C(F)(F)C(F)(F)F [Compound 9, C4F9—O—CF2—CF2—COONH4] — lower, 42%
- N.O=C(O)C(F)(F)OC(F)(F)C(F)(F)OC(F)(F)C(F)(F)F [Compound 10, C2F5—O—CF2—CF2—O—CF2—COONH4] — higher, 99%
- N.O=C(O)C(F)(F)C(F)OC(F)(F)C(F)(F)C(F)(F)OC(F)(F)F (centres unmarked) [Compound 11, CF3—O—CF2—CF2—CF2—O—CHF—CF2—COONH4] — higher, 84%
- N.O=C(O)C(F)OC(F)(F)C(F)(F)C(F)(F)OC(F)(F)F (centres unmarked) [Compound 12, CF3—O—CF2—CF2—CF2—O—CHF—COONH4] — higher, 95%
- N.O=C(O)C(F)(F)C(F)OC(F)(F)C(F)(F)C(F)(F)F (centres unmarked) [Compound 13, C3F7—O—CFH—CF2COONH4] — higher, 94%
- N.O=C(O)C(F)(F)C(F)(F)C(F)(F)C(F)(F)C(F)(F)OC(F)C(F)(F)F (centres unmarked) [Compound 14, CF3—CFH—O—(CF2)5—COONH4] — lower, 32%
- N.O=C(O)C(F)(F)C(F)(F)C(F)(F)OC(F)C(F)(F)F (centres unmarked) [Compound 15, CF3—CFH—O—(CF2)3—COONH4] — higher, 95%
- N.O=C(O)C(F)(F)C(F)(F)C(F)(F)C(F)(F)C(F)(F)C(F)(F)C(F)(F)F [Compound C-1, C7F15COONH4, reference compound] — lower, 6%
- N.O=C(O)C(F)(F)OC(F)(F)C(F)(OC(F)(F)C(F)(F)C(F)(F)F)C(F)(F)F (centres unmarked) [Compound C-3, C3F7—O—CF(CF3)—CF2—O—CF2—COONH4, reference compound] — lower, 5%

Same assay, conditions: 73 micro Moles per kg, oral gavage, based on elimination of the major metabolite C3F7—O—CHFCOO−, no parent compound in urine

For N.O=C(O)COC(F)(F)C(F)OC(F)(F)C(F)(F)C(F)(F)F (centres unmarked) [Compound 16, C3F7—O—CFH—CF2—O—CH2—COONH4], the “% Recovery (96 h)” value was 65* %.

For N.O=C(O)COC(F)(F)C(F)OC(F)(F)C(F)(F)C(F)(F)F (centres unmarked) [Compound 16, C3F7—O—CFH—CF2—O—CH2—COONH4], the “T½ (h)” value was 13* h.

Source: US7671112B2, “Method of making fluoropolymer dispersion” (priority 2005, dated 2010)
